Assay [1] addresses T1, GSK3α TYR 279 (Homo sapiens, UniProt P49840).
T1 construct: western blotting of Jurkat cells dosed with the compounds; endogenous in cells; host or cells: Jurkat cells
Briefly: GSK-3α p-TYR Inhibition Assay (western blotting of Jurkat cells). The assay is classed as cell-based. Particulars: western blot, read-out: GSK3a pTYR 279: IC50. How it is done:
Compounds are screened for their ability to inhibit the phosphorylation of tyrosine (TYR) residues through the use of western blotting of Jurkat cells dosed with the compounds. The phosphorylation of the specific TYR residues tested are GSK3α TYR 279 and GSK3β TYR 216.
Jurkat cells are seeded at a density of 2×10^5 cells/well in a 12 well dish in starvation media (RPMI+1% FBS+P/S). Following starvation for 16 hours, the compound is dosed into each well at a final DMSO concentration of 0.3% and cells are incubated o/n at 37° C. 5% CO2. The next day, cells are spun down at 1500 rpm, washed with PBS, and lysed in 100 uL Laemli sample buffer with β-mercaptoethanol.
15 microliters (uL) of cell lysates are loaded onto a 10% tris-glycine gel and run at 120 v for 2 hours or until dye front runs off of the gel. The protein is then transferred onto a PVDF membrane at 100 v for 60 min. PBST (PBS containing 0.1% Tween 20, such as 1 ml Tween per 1 L of PBS) is then made up and used for all washes and antibody incubations. The blot is blocked in 5% nonfat milk PBST for one hour.
The primary antibody (GSK-3α/β pTYR 279/216 at 1:1000 dilution Upstate cat#05-413) is then added in […] PBST overnight at 4° C. with gentle rocking. The blot is then washed in PBST for 5 min. This is then repeated 4 times. […]
(A western blot detects proteins with antibodies after separation by electrophoresis.)

The subject of assay [2] is rats subjected to MCAO. Briefly: Post Stroke Recovery MCAO Model: Forelimb Inhibition (Swimming Test). The assay is classed as in vivo, rat. Particulars: 7 and 14 days after stroke. The text has this:
Adult male Wistar rats are pre-trained on a battery of behavioral tests including: tray reach, […], forelimb asymmetry (cylinder bracing), forelimb inhibition (swim test) (see below for detailed description of tests). Following pre-stroke behavioral assessment the rats receive surgery during which a stroke is induced. The rats are pseudo-randomly divided into 5 equal groups (n=12) ensuring an equal number of right and left strokes within each treatment group. The first group receives sham surgery with vehicle as treatment. Administration of the test compound and vehicle (dose, route, timing) is determined by the sponsor. The core body temperature is maintained at 37° C. (+/-1°). Following surgery all animals are behaviorally assessed 1, 7, and 14 d post-stroke. At the conclusion of behavioral assessment all rats undergo an MRI to determine infarct volume. Group behavioral performance and stroke volume are compared between groups using one way analysis of variance to determine therapeutic benefit of the compound in rate and extent of recovery of function following MCAO stroke. […] Rectal temperature is monitored and maintained at 37 C+/-1° C. for the duration of the surgery and until the rat is awake and mobile (approximately 3 hr). […] Inhibition of the forelimbs is assessed by filming animals during swimming. […] Only the mid 80% of the length is scored. […]

The term IC50 denotes the concentration that gives 50% inhibition.

T1 sequence (P49840 whole entry): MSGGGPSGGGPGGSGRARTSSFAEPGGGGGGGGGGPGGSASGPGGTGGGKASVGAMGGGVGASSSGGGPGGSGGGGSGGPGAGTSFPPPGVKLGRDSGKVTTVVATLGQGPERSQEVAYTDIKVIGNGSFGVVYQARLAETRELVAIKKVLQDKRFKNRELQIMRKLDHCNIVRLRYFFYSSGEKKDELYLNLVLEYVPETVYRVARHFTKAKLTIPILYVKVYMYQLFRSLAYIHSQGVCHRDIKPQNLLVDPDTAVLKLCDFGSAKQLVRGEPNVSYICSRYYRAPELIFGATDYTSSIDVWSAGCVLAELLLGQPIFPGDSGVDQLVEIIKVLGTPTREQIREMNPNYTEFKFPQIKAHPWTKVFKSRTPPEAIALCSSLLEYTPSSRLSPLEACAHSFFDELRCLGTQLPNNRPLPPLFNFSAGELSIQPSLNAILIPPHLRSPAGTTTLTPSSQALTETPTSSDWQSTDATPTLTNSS

On to `Cc1nc(-c2ccccc2Cl)nc(Nc2n[nH]c3ncc(F)cc23)c1C` [Compound I-1, N-(2-(2-chlorophenyl)-5,6-dimethylpyrimidin-4-yl)-5-fluoro-1H-pyrazolo[3,4-b]pyridin-3-amine], for which, in assay [1], the half-maximal inhibitory concentration (IC50) was below 0.5 nM. The “deficit in forelimb inhibition (swimming test)” value in assay [2] is reported as “significantly ameliorated this deficit”.

Values taken from US8518953B2, “Aminopyrimidines useful as inhibitors of protein kinases” (Vertex Pharmaceuticals Incorporated, priority 2007, dated 2013).
